This note sets out measurements from article PMC7026480, “Discovery of Multitarget-Directed Ligands Against Influenza A Virus From Compound Yizhihao Through a Predictive System for Compound-Protein Interactions” (Frontiers in Cellular and Infection Microbiology, 2020).

Molecules are shown by their SMILES. Where two headings read alike, the source gives them in different places.

For assay [1], the target named is neuraminidase (NA) of A/HebeiXinhua/SWL1106/2017 (oseltamivir- and amantadine-resistant H1N1). The format is biochemical, influenza A virus. The conditions noted are these: read-out: IC50, NA inhibition test, A/HebeiXinhua/SWL1106/2017.
The subject of assay [2] is wild-type and resistant IAV strains. In words: microbe, parasite or virus in culture. In kind it is cell-based, influenza A virus. The conditions noted are these: for IC50: Influenza A virus, read-out: IC50, protective effects for cells infected with the resistant IAV strains (CPE).
Assay [3] deals with neuraminidase (NA) of A/FujianXinluo/SWL2457/2014 (amantadine-resistant H1N1). In kind it is biochemical, influenza A virus. The conditions noted are these: read-out: IC50, NA inhibition test, A/FujianXinluo/SWL2457/2014.
In assay [4] the test system is A/FujianXinluo/SWL2457/2014 (amantadine-resistant H1N1). In words: microbe, parasite or virus in culture. In kind it is cell-based. The conditions noted are these: Influenza A virus, H1N1, MDCK.
Assay [5] concerns A/HebeiXinhua/SWL1106/2017 (oseltamivir- and amantadine-resistant H1N1). In words: microbe, parasite or virus in culture. In kind it is cell-based, influenza A virus.
The mark [6] stands for this setting: read-out: IC50, CPE reduction, A/FujianXinluo/SWL2457/2014, Drug administration after virus inoculation.
Where [7] appears, read: read-out: IC50, CPE reduction, A/FujianXinluo/SWL2457/2014, Pre-incubation of virus and drug.
[8] abbreviates: read-out: IC50, CPE reduction, A/FujianXinluo/SWL2457/2014, Simultaneous action of virus and drug.
[9] abbreviates: read-out: IC50, CPE reduction, A/FujianXinluo/SWL2457/2014, Virus inoculation after drug administration.
Where [10] appears, read: Influenza A virus, H1N1, MDCK, read-out: IC50, CPE reduction, A/HebeiXinhua/SWL1106/2017, Drug administration after virus inoculation.
The mark [11] stands for this setting: Influenza A virus, H1N1, MDCK, read-out: IC50, CPE reduction, A/HebeiXinhua/SWL1106/2017, Pre-incubation of virus and drug.
[12] abbreviates: Influenza A virus, H1N1, MDCK, read-out: IC50, CPE reduction, A/HebeiXinhua/SWL1106/2017, Simultaneous action of virus and drug.
Where [13] appears, read: Influenza A virus, H1N1, MDCK, read-out: IC50, CPE reduction, A/HebeiXinhua/SWL1106/2017, Virus inoculation after drug administration.
Where [14] appears, read: read-out: IC50, dual-oseltamivir and amantadine-resistant H1N1 CPE assay, all modes except for drug administration after viral infection.

On to `O=C(/C=C/c1ccc(O)c(O)c1)O[C@@H]1C[C@](O)(C(=O)O)C[C@@H](O)[C@H]1O` [Chlorogenic acid], for which the IC50 in assay [1] and in assay [3] was more than 100 µM each time. Besides, the “inhibition of virus-induced CPE” value in assay [2] was “no inhibition of virus-induced CPE”.

Turning to `O=c1cc(-c2ccc(O)c(O)c2)oc2cc(O)cc(O)c12` [Luteolin], the IC50 is 31.9 ± 1.99 µM in assay [4] (setting [6]); 1.14 ± 1.02 µM in assay [4] (setting [7]); 24.9 ± 9.62 µM in assay [4] (setting [8]); more than 100 µM in assay [4] (setting [9]); less than 100 µM in assay [2]; more than 100 µM in assay [5] (setting [10]). The IC50 in assay [5] (setting [11]) is 15.2 ± 4.46 µM; in assay [5] (setting [12]), 20.1 ± 10.6 µM; in assay [5] (setting [13]), 47.2 ± 7.14 µM; in assay [5] (setting [14]) it was less than 100 µM.

In the case of `O=c1cc(-c2ccc(O)cc2)oc2cc(O)cc(O)c12` [Apigenin], the IC50 in assay [4] (setting [6]) is 28.1 ± 2.37 µM; in assay [4] (setting [7]) it was 32.1 ± 4.13 µM; in assay [4] (setting [8]), 40.5 ± 4 µM; in assay [4] (setting [9]), 36.5 ± 5.79 µM; in assay [2], less than 100 µM; in assay [5] (setting [10]) it was more than 100 µM. The IC50 in assay [5] (setting [11]) is 31.6 ± 10.3 µM; in assay [5] (setting [12]), 35.4 ± 3.98 µM; in assay [5] (setting [13]) it was 39 ± 3.82 µM; in assay [5] (setting [14]), less than 100 µM.

Take `NC(=O)c1ncn([C@@H]2O[C@H](CO)[C@@H](O)[C@H]2O)n1` [Ribavirin, ribavirin, reference compound]: the IC50 in assay [4] (setting [6]) was determined as 25.9 ± 14.6 µM; in assay [4] (setting [7]), 24.6 ± 3.1 µM; in assay [4] (setting [8]), 26.2 ± 2.4 µM; in assay [4] (setting [9]) it was 86.7 ± 9.8 µM; in assay [5] (setting [10]), 57.9 ± 10.5 µM; in assay [5] (setting [11]), 29.8 ± 6.4 µM. In addition, the IC50 in assay [5] (setting [12]) is 36.2 ± 13.7 µM; in assay [5] (setting [13]), 39.9 ± 9.71 µM; in assay [5] (Influenza A virus, H1N1, MDCK, read-out: IC50, dual-oseltamivir and amantadine-resistant H1N1 CPE assay, in the modes tested) it was 29.8 to 57.9 µM.

On to `O=c1c(O)c(-c2ccc(O)c(O)c2)oc2cc(O)cc(O)c12` [Quercetin], for which the IC50 in assay [4] (setting [6]) was 20.7 ± 14.7 µM; in assay [4] (setting [7]), 7.73 ± 3.04 µM; in assay [4] (setting [8]) it was 37.1 ± 18.2 µM; in assay [4] (setting [9]), 86.1 ± 13.8 µM; in assay [2], less than 100 µM; in assay [5] (setting [10]), more than 100 µM. The IC50 in assay [5] (setting [11]) was 6.93 ± 4.6 µM; in assay [5] (setting [12]), 14.6 ± 1.8 µM; in assay [5] (setting [13]) it was 19.1 ± 1.95 µM; in assay [5] (setting [14]), less than 100 µM.

For `C=C(C(=O)O)[C@H]1CC[C@H](C)[C@@H]2CC(=O)C(C)=C2C1` (stereo in doubt) [Rupestonic acid], the IC50 in assay [1] and in assay [3] was more than 100 µM in each case.

Regarding `C=C[C@@H]1CNC(=S)O1` [Epigoitrin], the IC50 in assay [1] and in assay [3] was more than 100 µM in each case.

On to `O=c1cc(-c2ccc(O)c(O)c2)oc2c([C@@H]3O[C@H](CO)[C@@H](O)[C@H](O)[C@H]3O)c(O)cc(O)c12` [Orientin], for which the IC50 in assay [1] and in assay [3] was more than 100 µM throughout. In assay [2], the “inhibition of virus-induced CPE” value is given as “no inhibition of virus-induced CPE”.

With `CCOC(=O)C1=C[C@@H](OC(CC)CC)[C@H](NC(C)=O)[C@@H](N)C1` [Oseltamivir, oseltamivir phosphate, reference compound], the IC50 in assay [4] (setting [6]) is 86.9 ± 7.8 µM; in assay [4] (setting [7]), 25.4 ± 8.32 µM; in assay [4] (setting [8]), 25.5 ± 8.36 µM; in assay [4] (setting [9]), more than 100 µM; in assay [5] (setting [10]), more than 100 µM; in assay [5] (setting [11]) it was more than 100 µM. The IC50 in assay [5] (setting [12]) and in assay [5] (setting [13]) was more than 100 µM in each case. Besides, the “IC50, dual-oseltamivir and amantadine-resistant H1N1 CPE assay, in the modes tested” value in assay [5] is listed as “no effect”.
